The structures appear in SMILES notation.

The record followed here is article PMC10528299, “Targeting FAK/PYK2 with SJP1602 for Anti-Tumor Activity in Triple-Negative Breast Cancer” (Current Issues in Molecular Biology, 2023).

Assay in all cases: Eurofins kinase profiling
What all share (format): biochemical

One test concerns the target T1, Met(h) (Homo sapiens, UniProt P08581).
T1 construct: purchased Eurofins KinaseProfiler
Conditions: for remaining activity at 1 µM: read-out: residual kinase activity Met(h). A digest of the protocol: (§1)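 Each kinase is incubated with compound (1 µM). Activity is then determined radiometrically from transfer of labeled phosphate.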

The next test addresses T2, cKit(h) (Homo sapiens, UniProt P10721).
T2 construct: purchased Eurofins KinaseProfiler
Conditions: read-out: residual kinase activity cKit(h). Put shortly: as §1

Another test deals with T3, IKKα(h) (Homo sapiens, UniProt O15111).
T3 construct: purchased Eurofins KinaseProfiler
T3 sequence (O15111 1-745): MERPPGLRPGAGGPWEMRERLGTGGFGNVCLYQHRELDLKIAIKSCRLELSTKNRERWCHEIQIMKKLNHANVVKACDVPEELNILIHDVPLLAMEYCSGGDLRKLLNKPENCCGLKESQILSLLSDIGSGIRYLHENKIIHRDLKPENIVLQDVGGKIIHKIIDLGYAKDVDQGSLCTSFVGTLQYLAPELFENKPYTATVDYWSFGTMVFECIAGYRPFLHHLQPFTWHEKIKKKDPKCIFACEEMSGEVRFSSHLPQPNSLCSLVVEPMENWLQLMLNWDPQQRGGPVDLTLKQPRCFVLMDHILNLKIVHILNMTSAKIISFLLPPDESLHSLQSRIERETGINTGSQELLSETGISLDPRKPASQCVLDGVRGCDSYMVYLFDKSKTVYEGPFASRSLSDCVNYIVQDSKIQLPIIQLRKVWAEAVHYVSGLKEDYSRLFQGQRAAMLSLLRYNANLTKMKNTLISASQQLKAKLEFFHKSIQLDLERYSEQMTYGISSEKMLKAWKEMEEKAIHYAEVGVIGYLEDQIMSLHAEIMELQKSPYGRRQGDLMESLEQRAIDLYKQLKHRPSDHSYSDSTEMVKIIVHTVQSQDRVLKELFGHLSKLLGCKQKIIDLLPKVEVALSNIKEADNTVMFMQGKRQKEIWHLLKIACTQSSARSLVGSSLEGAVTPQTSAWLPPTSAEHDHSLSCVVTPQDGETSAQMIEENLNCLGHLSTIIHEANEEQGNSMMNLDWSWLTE
Conditions: read-out: residual kinase activity IKKα(h). A digest of the protocol:
as §1

For the next test, the target named is T4, EGFR(h) (Homo sapiens, UniProt P00533).
T4 construct: purchased Eurofins KinaseProfiler
The following applies: read-out: residual kinase activity EGFR(h). Put shortly:
as §1

Another test deals with T5, ErbB4(h) (Homo sapiens, UniProt Q15303).
T5 construct: purchased Eurofins KinaseProfiler
The following applies: read-out: residual kinase activity ErbB4(h). Put shortly: as §1

For a further test, the target named is T6, Lck(h) activated (Homo sapiens, UniProt P06239).
T6 construct: purchased Eurofins KinaseProfiler
The following applies: 1 µM. A digest of the protocol: as §1

Another test deals with T7, Flt3(h) (Homo sapiens, UniProt P36888).
T7 construct: purchased Eurofins KinaseProfiler
T7 sequence (P36888 27-993): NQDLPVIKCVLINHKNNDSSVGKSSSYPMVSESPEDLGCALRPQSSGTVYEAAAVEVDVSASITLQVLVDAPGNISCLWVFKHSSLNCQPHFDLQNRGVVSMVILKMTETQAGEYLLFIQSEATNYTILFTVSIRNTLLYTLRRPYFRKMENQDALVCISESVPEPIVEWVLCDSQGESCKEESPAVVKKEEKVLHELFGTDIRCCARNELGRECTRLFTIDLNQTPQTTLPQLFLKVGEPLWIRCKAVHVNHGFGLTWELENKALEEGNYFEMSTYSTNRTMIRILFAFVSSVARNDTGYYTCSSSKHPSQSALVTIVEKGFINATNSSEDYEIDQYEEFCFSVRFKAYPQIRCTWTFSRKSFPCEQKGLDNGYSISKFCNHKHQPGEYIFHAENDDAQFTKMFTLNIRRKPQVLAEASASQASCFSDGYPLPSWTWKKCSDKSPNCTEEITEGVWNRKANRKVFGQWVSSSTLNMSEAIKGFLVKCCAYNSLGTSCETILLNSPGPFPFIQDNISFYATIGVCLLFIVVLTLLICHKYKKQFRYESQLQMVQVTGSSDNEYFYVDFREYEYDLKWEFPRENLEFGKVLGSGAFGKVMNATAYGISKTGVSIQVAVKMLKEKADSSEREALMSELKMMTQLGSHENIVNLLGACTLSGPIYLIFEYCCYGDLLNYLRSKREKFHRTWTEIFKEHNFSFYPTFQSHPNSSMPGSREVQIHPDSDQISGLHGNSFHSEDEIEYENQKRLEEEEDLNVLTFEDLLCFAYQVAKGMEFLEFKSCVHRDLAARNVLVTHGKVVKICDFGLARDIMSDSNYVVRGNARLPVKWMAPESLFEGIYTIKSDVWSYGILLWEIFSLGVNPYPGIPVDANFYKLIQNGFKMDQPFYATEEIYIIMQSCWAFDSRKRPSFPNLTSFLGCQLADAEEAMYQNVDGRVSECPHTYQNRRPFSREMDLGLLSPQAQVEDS
Conditions: read-out: residual kinase activity Flt3(h). Put shortly:
as §1

The next test concerns the target T8, cKit(D816H)(h) (Homo sapiens, UniProt P10721, D816H).
T8 construct: purchased Eurofins KinaseProfiler
The following applies: read-out: residual kinase activity cKit(D816H)(h). Put shortly: as §1

Test [1] addresses T9, PI3 Kinase (p110b/p85a)(h) (Homo sapiens, UniProt P42338).
T9 construct: purchased Eurofins KinaseProfiler
Conditions: read-out: residual kinase activity PI3 Kinase (p110b/p85a)(h). Put shortly:
as §1

T6 sequence (P06239 whole entry): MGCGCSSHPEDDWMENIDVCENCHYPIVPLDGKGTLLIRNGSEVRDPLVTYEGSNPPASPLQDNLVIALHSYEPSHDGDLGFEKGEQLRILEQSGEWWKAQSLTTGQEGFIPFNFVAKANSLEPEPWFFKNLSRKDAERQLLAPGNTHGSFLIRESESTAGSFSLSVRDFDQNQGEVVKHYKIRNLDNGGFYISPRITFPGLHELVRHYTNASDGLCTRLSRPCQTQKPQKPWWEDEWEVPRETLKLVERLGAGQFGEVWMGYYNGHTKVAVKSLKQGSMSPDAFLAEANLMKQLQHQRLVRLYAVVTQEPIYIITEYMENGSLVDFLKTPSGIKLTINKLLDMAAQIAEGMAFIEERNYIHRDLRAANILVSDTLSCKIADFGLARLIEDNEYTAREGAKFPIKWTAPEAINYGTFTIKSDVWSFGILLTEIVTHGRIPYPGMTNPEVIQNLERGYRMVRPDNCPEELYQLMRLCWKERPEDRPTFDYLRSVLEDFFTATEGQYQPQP
T4 sequence (P00533 25-1210): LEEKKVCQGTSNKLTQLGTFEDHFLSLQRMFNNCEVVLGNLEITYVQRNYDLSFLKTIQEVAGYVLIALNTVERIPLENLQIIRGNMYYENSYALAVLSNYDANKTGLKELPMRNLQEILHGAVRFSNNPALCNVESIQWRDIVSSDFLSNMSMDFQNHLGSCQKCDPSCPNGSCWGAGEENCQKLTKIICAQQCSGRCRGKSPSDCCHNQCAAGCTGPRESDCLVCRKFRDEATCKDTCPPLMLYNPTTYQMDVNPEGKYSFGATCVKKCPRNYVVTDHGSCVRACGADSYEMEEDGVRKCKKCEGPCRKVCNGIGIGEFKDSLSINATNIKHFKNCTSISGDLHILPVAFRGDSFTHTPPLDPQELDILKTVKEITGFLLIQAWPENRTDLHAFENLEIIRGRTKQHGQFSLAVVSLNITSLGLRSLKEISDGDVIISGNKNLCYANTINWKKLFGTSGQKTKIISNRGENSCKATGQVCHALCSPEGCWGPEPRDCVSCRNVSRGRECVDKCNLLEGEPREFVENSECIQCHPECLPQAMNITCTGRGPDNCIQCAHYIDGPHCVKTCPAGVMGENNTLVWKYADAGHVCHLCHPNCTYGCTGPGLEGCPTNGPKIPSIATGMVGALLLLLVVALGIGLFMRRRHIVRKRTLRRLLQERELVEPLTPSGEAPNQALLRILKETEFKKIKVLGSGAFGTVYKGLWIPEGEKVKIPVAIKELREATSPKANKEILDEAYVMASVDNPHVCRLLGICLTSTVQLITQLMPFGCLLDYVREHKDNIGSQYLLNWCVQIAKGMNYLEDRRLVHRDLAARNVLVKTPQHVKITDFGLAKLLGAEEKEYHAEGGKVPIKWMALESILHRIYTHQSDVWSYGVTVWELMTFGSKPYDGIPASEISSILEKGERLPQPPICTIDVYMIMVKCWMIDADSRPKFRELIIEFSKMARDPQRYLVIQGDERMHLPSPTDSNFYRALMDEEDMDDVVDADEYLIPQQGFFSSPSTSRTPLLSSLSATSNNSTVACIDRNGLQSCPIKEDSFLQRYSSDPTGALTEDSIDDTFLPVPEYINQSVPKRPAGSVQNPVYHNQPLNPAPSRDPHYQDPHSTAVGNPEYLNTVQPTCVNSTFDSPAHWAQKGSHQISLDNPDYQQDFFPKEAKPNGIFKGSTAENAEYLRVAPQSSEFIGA
T2 sequence (P10721 26-976): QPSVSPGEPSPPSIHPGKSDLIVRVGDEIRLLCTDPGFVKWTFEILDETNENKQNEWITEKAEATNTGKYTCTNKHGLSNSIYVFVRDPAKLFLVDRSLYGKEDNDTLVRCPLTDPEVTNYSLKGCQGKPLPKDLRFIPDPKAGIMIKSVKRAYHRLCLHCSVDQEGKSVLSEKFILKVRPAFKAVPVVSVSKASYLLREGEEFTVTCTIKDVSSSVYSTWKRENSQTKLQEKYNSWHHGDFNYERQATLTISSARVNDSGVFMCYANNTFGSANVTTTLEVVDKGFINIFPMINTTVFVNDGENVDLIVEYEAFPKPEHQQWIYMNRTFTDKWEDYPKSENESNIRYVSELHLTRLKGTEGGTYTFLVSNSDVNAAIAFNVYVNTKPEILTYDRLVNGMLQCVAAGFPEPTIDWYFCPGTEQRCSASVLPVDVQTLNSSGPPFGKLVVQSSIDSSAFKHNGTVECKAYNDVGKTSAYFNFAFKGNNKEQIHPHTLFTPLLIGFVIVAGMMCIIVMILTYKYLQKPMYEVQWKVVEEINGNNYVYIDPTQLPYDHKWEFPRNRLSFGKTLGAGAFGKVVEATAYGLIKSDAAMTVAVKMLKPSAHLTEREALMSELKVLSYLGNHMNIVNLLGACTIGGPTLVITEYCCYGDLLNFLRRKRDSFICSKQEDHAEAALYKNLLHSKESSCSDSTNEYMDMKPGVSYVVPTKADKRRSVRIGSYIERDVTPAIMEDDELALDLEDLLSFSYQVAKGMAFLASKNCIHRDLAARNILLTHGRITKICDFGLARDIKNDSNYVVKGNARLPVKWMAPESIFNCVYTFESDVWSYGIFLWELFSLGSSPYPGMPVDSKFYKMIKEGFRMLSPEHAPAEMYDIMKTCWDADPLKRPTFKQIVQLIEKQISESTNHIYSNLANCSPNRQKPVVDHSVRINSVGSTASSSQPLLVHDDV
T9 sequence (P42338 whole entry): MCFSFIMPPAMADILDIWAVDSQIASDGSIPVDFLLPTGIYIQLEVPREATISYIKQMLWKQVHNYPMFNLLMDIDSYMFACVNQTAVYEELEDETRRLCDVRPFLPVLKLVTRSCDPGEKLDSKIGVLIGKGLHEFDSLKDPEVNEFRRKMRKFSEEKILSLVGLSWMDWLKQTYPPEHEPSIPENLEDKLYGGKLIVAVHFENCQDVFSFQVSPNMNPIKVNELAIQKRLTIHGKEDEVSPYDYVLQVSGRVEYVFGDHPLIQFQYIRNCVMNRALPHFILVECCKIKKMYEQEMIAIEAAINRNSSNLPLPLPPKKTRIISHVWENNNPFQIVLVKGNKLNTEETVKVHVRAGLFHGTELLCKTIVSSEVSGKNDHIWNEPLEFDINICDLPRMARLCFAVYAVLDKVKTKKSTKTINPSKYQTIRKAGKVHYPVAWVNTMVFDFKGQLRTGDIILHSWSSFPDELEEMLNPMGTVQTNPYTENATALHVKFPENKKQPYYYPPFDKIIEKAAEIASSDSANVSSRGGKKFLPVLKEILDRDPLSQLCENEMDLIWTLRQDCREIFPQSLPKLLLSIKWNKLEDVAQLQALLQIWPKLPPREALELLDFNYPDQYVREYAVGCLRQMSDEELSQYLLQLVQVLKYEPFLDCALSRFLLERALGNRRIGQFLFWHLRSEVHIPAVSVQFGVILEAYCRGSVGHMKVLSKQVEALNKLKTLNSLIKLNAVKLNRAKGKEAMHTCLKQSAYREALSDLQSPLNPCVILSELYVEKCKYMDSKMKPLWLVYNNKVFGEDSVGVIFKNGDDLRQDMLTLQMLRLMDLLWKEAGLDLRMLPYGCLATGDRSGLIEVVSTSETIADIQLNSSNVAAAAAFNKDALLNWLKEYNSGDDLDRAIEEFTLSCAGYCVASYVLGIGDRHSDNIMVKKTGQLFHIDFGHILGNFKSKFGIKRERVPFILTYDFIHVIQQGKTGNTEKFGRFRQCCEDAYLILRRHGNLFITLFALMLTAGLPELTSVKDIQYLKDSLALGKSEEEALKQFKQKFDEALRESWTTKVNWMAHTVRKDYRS
T9 sequence (P27986 whole entry partner): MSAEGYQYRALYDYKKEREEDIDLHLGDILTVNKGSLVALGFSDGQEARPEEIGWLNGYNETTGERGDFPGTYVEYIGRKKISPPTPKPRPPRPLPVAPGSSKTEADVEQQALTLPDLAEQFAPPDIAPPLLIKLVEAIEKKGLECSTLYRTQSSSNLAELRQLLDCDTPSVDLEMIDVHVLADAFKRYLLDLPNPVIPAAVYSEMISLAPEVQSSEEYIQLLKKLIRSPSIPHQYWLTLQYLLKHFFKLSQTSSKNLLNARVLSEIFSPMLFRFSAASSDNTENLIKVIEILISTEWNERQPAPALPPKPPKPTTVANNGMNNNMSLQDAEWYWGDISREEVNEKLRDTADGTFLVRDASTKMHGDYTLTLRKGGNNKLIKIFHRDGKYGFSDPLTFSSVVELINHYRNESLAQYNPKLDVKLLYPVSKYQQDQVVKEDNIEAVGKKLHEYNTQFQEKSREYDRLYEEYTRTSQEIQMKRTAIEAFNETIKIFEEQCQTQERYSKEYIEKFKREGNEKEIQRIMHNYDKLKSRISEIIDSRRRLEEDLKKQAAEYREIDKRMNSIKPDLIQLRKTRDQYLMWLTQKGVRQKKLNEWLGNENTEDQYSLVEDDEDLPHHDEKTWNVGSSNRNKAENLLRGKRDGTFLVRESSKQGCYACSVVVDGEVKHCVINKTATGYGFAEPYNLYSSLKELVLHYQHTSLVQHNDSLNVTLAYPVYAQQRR
T8 sequence (P10721 26-976 D816H): as the sequence (P10721 26-976) above, with D791H counted along it

Consider `CONC(=O)c1ccccc1Nc1cc(Nc2cc(C)nn2C(C)C)ncc1Cl` [GSK2256098], for which the remaining activity at 1 µM came to 76% on Met(h); 93% on cKit(h); 93% at IKKα(h); 98% at EGFR(h); 81% on ErbB4(h); 108% at Flt3(h). Further, the figures for the remaining activity at 1 µM (on cKit(D816H)(h); in test [1]) were 98% and 105%, respectively. On Lck(h) activated, the “residual kinase activity Lck(h) activated” value is recorded as 90.
Broadly, the inhibition is the relative decrease from the control value, in per cent. Lower therefore signals little suppression. Take `CNC(=O)c1cccc(C)c1Nc1nc(Nc2ccc(N3CCN(C4C5CC6CC4CC(O)(C6)C5)CC3)cc2OC)ncc1C(F)(F)F` (stereo not shown) [SJP1602, 2-((2-((4-(4-((2s,5r)-5-hydroxyadamantan-2-yl)piperazin-1-yl)-2-methoxyphenyl)amino)-5-(trifluoromethyl)pyrimidin-4-yl)amino)-N,3-dimethylbenzamide]: on Met(h), the inhibition at 1 µM was 79%. Also, the remaining activity at 1 µM on Met(h) was found to be 21%; on cKit(h) it was 97%; at IKKα(h), 130%; on EGFR(h) it was 112%; on ErbB4(h), 99%; on Flt3(h), 77%. The figures for the remaining activity at 1 µM (at cKit(D816H)(h); in [1]) were 124% and 100%, respectively. Further, the “residual kinase activity Lck(h) activated” value on Lck(h) activated is recorded as 107.
With `CNC(=O)c1ccc(Nc2ncc(C(F)(F)F)c(NCc3nccnc3N(C)S(C)(=O)=O)n2)cc1` [VS-6063, Defactinib], the remaining activity at 1 µM stood at 42% at Met(h); 80% at cKit(h); 125% at IKKα(h); 105% at EGFR(h); 104% at ErbB4(h); 6% on Flt3(h). Besides, the remaining activity at 1 µM at cKit(D816H)(h) turned out to be 94%; in test [1], 103%. In addition, the “residual kinase activity Lck(h) activated” value at Lck(h) activated is 58.
